One test deals with luciferase in Huh7 cells. In words: Luciferase assay with siRNA-CPP conjugates, Huh7. It counts as cell-based, human. Particulars: Huh cell line, siRNA 400 nM, 16 hours. The protocol:
Huh7 (human hepatocellular carcinoma) cells obtained from ATCC was cultured in a RPMI 1640 medium (Hyclon) containing 10% fetal bovine serum (Invitrogen Co., Carlsbad, Calif., USA), […] L-glutamine, 100 ug/ml penicillin and 100 units/ml of streptomycin at 37° C., 5% CO2 incubator.
(§1) 2×10^5 of Huh7 cells were inserted into each well of a 24 well plate and were grown. Transient transfection on the cells was performed using 2 ug of luciferase objective DNA and lipofectamin 2000 (Invitrogen Co., Carlsbad, Calif., USA). After 4 hours, lipofectamin 2000 was perfectly washed with PBS several times; siRNA of final concentration of […] was treated in 500 ul of Opti-MEM (Invitrogen Co., Carlsbad, Calif., USA) and was reacted at 37° C. incubator for 16 hours. To terminate the reaction, cells were washed with PBS and proteins were lysed using Reporter Lysis Buffer (Progema Co., Madison, Wis., USA) solution and the luminescence was measured by luminometer (Turner BioSystem, Sunnyvale, Calif., USA) using luciferase reagent (Promega Co., Madison, Wis., USA). Efficacy of siRNA was corrected by Bradford protein assay.

For the next test, the system named is luciferase in CHO cell. In words: Luciferase assay with siRNA-CPP conjugates, CHO. It counts as cell-based. The method, then:
as §1
To verify cell penetrating property of pep1, siRNA for luciferase purpose was produced produced and luciferase activation was measured using Huh7 (human hepatocelular carcinoma) cells and CHO cell line. The result verified that activation of penetratine and pep1 in siRNA combined with luciferase was reduced approx. 28%, 20% compared with penetratin and pep1 in siRNA combined with control in Huh cell line. […]

No end group written: not given here.

The values below come from patent US10967000B2, “Cell-penetrating peptide, conjugate comprising same and composition comprising same” (GemVax & KAEL Co., Ltd., priority 2012, dated 2021).

In the case of “siLuc conjugation with Mercaptoacetyl-Ahx-EARPALLTSRLRFIPK (EARPALLTSRLRFIPK-OH; not fully specified (N-terminus); printed as Mercaptoacetyl-Ahx-EARPALLTSRLRFIPK; also: conjugated to luciferase siRNA; UniProt O14746 611-626, looked up, fragment) [siLuc-pep1, luciferase siRNA conjugated to pep1 via thiol-maleimide]”, the “reduction of luciferase activation compared with the same peptide in siRNA combined with control” value in the test with luciferase in Huh7 cells is listed as approximately 20%. For the same substance, the “inhibition of luciferase activity” value in the test with luciferase in CHO cell was “about 30%”.
